# From patent US10550144B2, “6-aryl-9-glycosylpurines and use thereof” (UNIVERZITA PALACKEHO V OLOMOUCI, priority 2014, dated 2020)
# Read-outs that look alike come from different tables or passages of the source.
# Tested on: skin fibroblasts BJ and keratinocytes HaCaT
# Assay: MTT in vitro cytotoxicity test on skin cells
# Type: cell-based, human
# Experimental: MTT assay is a standard test of toxicity based on photometric measurement of the ability of metabolically active cells to reduce MTT (3-(4,5-dimethylthiazol-2-yl)-2,5-diphenyltetrazolium bromide). Using the assay, the effects of 72 hour treatments with several concentrations of the compounds (sixfold dilution, maximal concentration=50 microM) on viability of skin fibroblasts BJ and keratinocytes HaCaT were evaluated. About 5,000 cells were seeded per well of a 96-well plate 24 hours before the treatment. DMSO vehiculum was used as a negative control. After 72 hour treatment, new medium with MTT (Sigma, M2128) was added to a final concentration of 0.5 mg/ml. After 3 hours, medium was removed and resulting formazan in the cells was dissolved in DMSO. The absorbance was measured at 570 nm (640 nm reference wavelength). The IC50 values were calculated from the dose-response curves. 6-Benzylaminopurine riboside and 6-furfurylaminopurine riboside were used as positive controls they were toxic in the MTT test.
SMILES,toxicity in the MTT test,"IC50 (MTT, 72 hour treatment, maximal concentration 50 microM, BJ and HaCaT, table does not separate the cell lines)",toxicity in the MTT test (72 hour treatment)
OC[C@H]1OC(n2cnc3c(NCc4ccccc4)ncnc32)[C@H](O)[C@@H]1O (stereo partly drawn) [6-benzylaminopurin9-ribosylpurine],toxic,≤ 3 µM,
OC[C@H]1OC(n2cnc3c(NCc4ccco4)ncnc32)[C@H](O)[C@@H]1O (stereo partly drawn) [6-furfurylamino-9-ribosylpurine],,,toxic
